Like-named read-outs stand apart in the source and are kept apart here. Numbered stars: 1 amine (or outer) side, 2 acyl side, 3 side chain; on linkers, the order of the positions; unused ones are H or OH. Bridge positions count the residues as written; N and C are the ends. Square brackets hold non-standard residues; d marks the D form. Peptide text beside a SMILES is read from it. * marks the point of attachment. Hexadecanoyl(16-OH) = O=C(CCCCCCCCCCCCCCCO)*; X1 = O=C([C@H]1C[C@H](N[*:3])CN1[*:1])[*:2]; Gly(decyl) = CCCCCCCCCC[C@H](N)C(=O)O; Myristoyl = CCCCCCCCCCCCCC(=O)*; Lauroyl = CCCCCCCCCCCC(=O)*; Decanoyl = CCCCCCCCCC(=O)*; Dab = NCC[C@H](N)C(=O)O; X3 = CCCCCCCCCC*
Assays:
[1] = Plasma stability in mouse plasma; assay type: in vitro ADME; conditions: mouse plasma, 37° C.; for remaining at 24 h, 10 μM: 1440 min, read-out: mouse pl. cpd left at 1440 min; for mouse pl. T1/2: up to 1440 min
Experimental: (§1) Percent hemolysis was calculated as follows: (OD540peptide/OD540H2O)×100%. 2.6. Plasma Stability
(§2) The stability of the peptides in human and mouse plasma was determined by applying the following method: 346.5 μL/deep well of freshly thawed human plasma (Basler Blutspendedienst) and mouse plasma (Harlan Sera-Lab, UK), respectively, were spiked with 3.5 μL/well of compound dissolved in DMSO/H2O ([…] [v/v], 1 mM, triplicate) and incubated at 37° C. At t=0, 15, 30, 60, 120, 240 and 1440 min aliquots of 50 μL were transferred to filtration plate wells containing 150 μL/well of 2% formic acid in acetonitrile. Following shaking for 2 min the occurred suspensions were filtrated by vacuum and 50 μL of each filtrate was mixed with 100 μL of 1% formic acid in H2O. After transfer to a propylene microtiter plate, the filtrates were analyzed by LC/MS as follows: Column: Waters, XBridge C18, mobile phases: (A) water+0.1% formic acid and (B) acetonitrile/water, 95/5 (v/v)+0.1% formic acid, gradient: 5%-100% (B) in 2 minutes, electrospray ionization, MRM detection (triple quadrupole). The peak areas were determined and triplicate values are averaged. The stability is expressed in percent of the initial value at t=0. (tx/t0×100). By using the TREND function of EXCEL (Microsoft Office 2003) T1/2 were determined.

[2] = Cytotoxicity, MTT reduction assay, COS-7 cells; assay type: cell-based; conditions: 12.5-50 μM; for GI50: 48 h; for GI50 at 48 h: African green monkey, COS-7 cells (CRL-1651)
Experimental: (§3) Mouse pre-B cells were cultured in RPMI1640 plus 5% FBS, antibiotic/antimycotic, non essential amino acid, 50 μM β-mercaptoethanol and 1 mM natrium pyruvate. HELA cells were maintained in RPMI1640 plus 10% FBS, pen/strept and 2 mM L-glutamine. Cos-7 cells were grown in DMEM medium with […] glucose supplemented with 10% FCS, pen/strept and 2 mM L-glutamine. All cell lines were grown at 37° C. at 5% CO2. Cell media, media supplements, PBS-buffer, HEPES, antibiotic/antimycotic, pen/strept, non essential amino acid, L-glutamine, β-mercaptoethanol and sera were purchased from Gibco (Pailsey, UK). All fine chemicals were supplied by Merck (Darmstadt, Germany).
(§4) The cytotoxicity of the peptides to HELA cells (Acc57) and COS-7 cells (CRL-1651) was determined using the MTT reduction assay (T. Mossman, J. Immunol. Meth. 1983, 65, 55-63; M. V. Berridge, A. S. Tan, Arch. Biochem. Biophys. 1993, 303, 474-482). Briefly, the method was as follows: 4000 HELA cells/well and 3400 COS-7 cells/well were seeded and grown in 96-well microtiter plates for 24 h at 37° C. at 5% CO2. Thereafter, time zero (Tz) was determined by MTT reduction (see below). The supernatant of the remaining wells was discarded, and fresh medium and compounds in serial dilutions (12.5, 25 and 50 μM, triplicates) were pipetted into the wells. After incubation of the cells for 48 h at 37° C. at 5% CO2 the supernatant was discarded again and 100 μL MTT reagent (0.5 mg/mL in RPMI1640 and DMEM, respectively)/well was added. Following incubation at 37° C. for 2-4 h the media were aspirated and the cells were spiked (100 μL isopropanol/well). The absorbance of the solubilized formazan was measured at 595 nm (OD595peptide). For each concentration averages were calculated from triplicates. The percentage of growth was calculated as follows: (OD595peptide-OD595Tz-OD595Empty well)/(OD595Tz-OD595Empty well)×100%. The GI50 (Growth Inhibition) concentrations were calculated for each peptide by using a trend line function for the concentrations (50, 25, 12.5 and 0 μM), the corresponding percentages and the value 50, (=TREND (C50: C0, %50:%0,50).

[3] = Cytotoxicity, MTT reduction assay, HELA cells; assay type: cell-based; conditions: 12.5-50 μM; for GI50: 48 h; for GI50 at 48 h: human, HELA cells (Acc57)
Experimental: as §3, §4

[4] = Plasma stability in human plasma; assay type: in vitro ADME; conditions: human plasma, 37° C.; for remaining at 24 h, 10 μM: 1440 min, read-out: human pl. cpd left at 1440 min; for half-life / human pl. T1/2: up to 1440 min; for half-life: read-out: human pl. T1/2
Experimental: as §1, §2

[5] = tested on: human red blood cells (hRBC); assay: Hemolysis of human red blood cells; assay type: cell-based; conditions: 20% hRBC, 1 h, 37° C.
Experimental: The peptides were tested for their hemolytic activity against human red blood cells (hRBC). Fresh hRBC were washed three times with phosphate buffered saline (PBS) and centrifuged for 10 min at 2000×g. Compounds (100 μM) were incubated with 20% hRBC (v/v) for 1 h at 37° C. and shaking at 300 rpm. The final erythrocyte concentration was approximately 0.9×10^9 cells/mL. A value of 0% and 100% cell lyses, respectively, was determined by incubation of hRBC in the presence of PBS containing 0.001% acetic acid and 2.5% Triton X-100 in H2O, respectively. The samples were centrifuged, the supernatants were 8-fold diluted in PBS buffer and the optical densities (OD) were measured at 540 nm. The 100% lyses value (OD540H2O) gave an OD540 of approximately 0.5-1.0.
as §1

[6] = target: T1, human CXCR4 (Homo sapiens, UniProt P61073); assay: Ca2+-assay: CXCR4-antagonizing activity (SDF-1 induced calcium mobilization); assay type: cell-based
T1 construct: expressed in transfected cells; host or cells: mouse pre-B cell line 300-19
Excerpt: 2.3. Ca^2+-Assay: CXCR4-Antagonizing Activity of the Peptides
Increases in intracellular calcium were monitored using a Flexstation 384 (Molecular Devices, Sunnyvale, Calif.) to assay the peptides for CXCR4 antagonism in a mouse pre-B cell line 300-19 stably transfected with human CXCR4 (E. Oberlin, A. Amara, F. Bachelerie, C. Bessia, J.-L. Virelizier, F. Arenzana-Seisdedos, O, Schwartz, J.-M. Heard, I. Clark-Lewis, D. F. Legler, M. Loetscher, M. Baggiolini, B. Moser, Nature 1996, 382, 833-835; M. Loetscher, T. Geiser, T. O'Reilly, R. Zwalen, M. Baggiolini, B. Moser, J. Biol. Chem. 1994, 269, 232-237; M. D'Apuuo, A. Rolink, M. Loetscher, J. A. Hoxie, I. Clark-Lewis, F. Melchors, M. Baggiolini, B. Moser, Eur. J. Immunol. 1997, 27, 1788-1793). The cells were batch loaded with the Calcium 4 Assay kit (Molecular Devices) in assay buffer (Hanks Balanced salt solution [HBSS], 20 mM HEPES, pH 7.4, 0.1% BSA) for 1 h at room temperature and labeled cells were dispensed into black well assays plates (Costar No. 3603). Calcium mobilization induced by stromal-derived factor-1 (SDF-1) was measured in the Flexstation 384 (excitation: 485 nm; emission: 525 nm) for 90 seconds. Antagonist activity of peptides was determined by spiking the cells with compounds prior to SDF-1 addition. Dose response curves (compound concentration versus % maximum response for SDF-1) were determined for each antagonist and IC50 values were calculated by fitting the data to a four parameter logistic equation using SoftmaxPro 4.8 (Molecular Devices).

[7] = mouse pre-B cell line 300-19 transfected with human CXCR4, SDF-1 induced Ca2+ mobilization, read-out: IC50% [nM] ± SD, CXCR4 receptor

T1 sequence (P61073 whole entry): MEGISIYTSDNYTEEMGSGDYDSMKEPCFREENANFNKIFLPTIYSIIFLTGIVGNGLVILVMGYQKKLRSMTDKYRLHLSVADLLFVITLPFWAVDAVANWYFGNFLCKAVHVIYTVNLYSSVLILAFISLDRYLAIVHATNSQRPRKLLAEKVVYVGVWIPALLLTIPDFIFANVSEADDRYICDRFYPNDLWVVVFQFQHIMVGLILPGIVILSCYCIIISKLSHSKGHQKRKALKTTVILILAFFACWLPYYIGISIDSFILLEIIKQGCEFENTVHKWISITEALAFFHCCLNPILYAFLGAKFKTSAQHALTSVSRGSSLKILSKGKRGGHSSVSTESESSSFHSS

Row | SMILES | remaining at 24 h, 10 μM [1] [%] | mouse pl. T1/2 [1] [h] | GI50 ([2]; COS-7 cells) [µM] | GI50 ([3]; HELA cells) [µM] | remaining at 24 h, 10 μM [4] [%] | half-life [4] [h] | human pl. T1/2 [4] [h] | Hemolysis at 100 μM [5] [%] | IC50 [6, 7] [nM] | GI50 at 48 h [2] [µM] | GI50 at 48 h [3] [µM] | GI50 [2] [µM] | GI50 [3] [µM] | IC50 [6] [nM]
1 | CCCCCCCCCCCCCC(=O)N[C@H]1C[C@@H]2C(=O)N[C@@H](CCN)C(=O)N[C@@H](CCCNC(=N)N)C(=O)N[C@@H](Cc3ccc(O)cc3)C(=O)N[C@H]3CSSC[C@H](NC(=O)[C@H]([C@@H](C)O)NC(=O)[C@H](Cc4c[nH]cn4)NC(=O)[C@H](Cc4ccc(O)cc4)NC(=O)[C@@H]4CCCN4C(=O)[C@H]4CCCN4C(=O)[C@H](CCC(N)=O)NC(=O)[C@H](CCC(N)=O)NC(=O)[C@H](Cc4ccc(O)cc4)NC3=O)C(=O)N[C@@H](CCCNC(=N)N)C(=O)NCC(=O)N2C1 [Ex. 4] (cyclo(YHTCRG[X1](Myristoyl)[Dab]RYCYQQ[dP]P); disulfide 4-11) | 62 | 24 | > 50 | > 50 | 66 | 5.25 | – | – | – | – | – | – | – | –
2 | CCCCCCCCCC[C@@H]1NC(=O)[C@H](Cc2ccc(O)cc2)NC(=O)[C@@H]2CSSC[C@H](NC(=O)[C@H](Cc3ccc(O)cc3)NC(=O)[C@H](Cc3c[nH]cn3)NC(=O)[C@H](Cc3ccc(O)cc3)NC(=O)[C@@H]3CCCN3C(=O)[C@H]3CCCN3C(=O)[C@H](CCCCN)NC1=O)C(=O)N[C@@H](CCCNC(=N)N)C(=O)N[C@@H](C)C(=O)N1CCC[C@@H]1C(=O)N[C@@H](CCN)C(=O)N[C@@H](CCCNC(=N)N)C(=O)N[C@@H](Cc1ccc(O)cc1)C(=O)N2 [Ex. 8] (cyclo(YHYCRA[dP][Dab]RYCY[Gly(decyl)]K[dP]P); disulfide 4-11) | 82 | 24 | > 44 | > 26 | 79 | – | 24 | – | – | – | – | – | – | –
3 | CCCCCCCCCCCC(=O)NCC[C@@H]1NC(=O)[C@H](Cc2ccc(O)cc2)NC(=O)[C@@H]2CSSC[C@H](NC(=O)[C@H](C)NC(=O)[C@H](Cc3c[nH]cn3)NC(=O)[C@H](Cc3ccc(O)cc3)NC(=O)[C@@H]3CCCN3C(=O)[C@H]3CCCN3C(=O)[C@H](CCCCN)NC1=O)C(=O)N[C@@H](CCCNC(=N)N)C(=O)N[C@@H](C)C(=O)N1CCC[C@@H]1C(=O)N[C@@H](CCN)C(=O)N[C@@H](CCCNC(=N)N)C(=O)N[C@@H](Cc1ccc(O)cc1)C(=O)N2 [Ex. 11] (cyclo(YHACRA[dP][Dab]RYCY[Dab](Lauroyl)K[dP]P); disulfide 4-11) | – | – | – | – | 82 | – | 24 | 0.7 | 7.3 ± 4.7 | > 50 | > 29 | – | – | –
4 | CCCCCCCCCC(=O)NCCCC[C@@H]1NC(=O)[C@H](Cc2ccc(O)cc2)NC(=O)[C@@H]2CSSC[C@H](NC(=O)[C@H]([C@@H](C)O)NC(=O)[C@H](Cc3c[nH]cn3)NC(=O)[C@H](Cc3ccc(O)cc3)NC(=O)[C@@H]3CCCN3C(=O)[C@H]3CCCN3C(=O)[C@H](CCCCN)NC1=O)C(=O)N[C@@H](CCCNC(=N)N)C(=O)NCC(=O)N1CCC[C@@H]1C(=O)N[C@@H](CCN)C(=O)N[C@@H](CCCNC(=N)N)C(=O)N[C@@H](Cc1ccc(O)cc1)C(=O)N2 [Ex. 15] (cyclo(YHTCRG[dP][Dab]RYCYK(Decanoyl)K[dP]P); disulfide 4-11) | – | – | – | – | 73 | – | 24 | 0.6 | 11.2 ± 4 | > 40 | > 50 | – | – | –
5 | C[C@@H]1NC(=O)[C@H](CO)NC(=O)[C@@H]2CSSC[C@H](NC(=O)[C@H](Cc3ccc(O)cc3)NC(=O)[C@H](CCCNC(=N)N)NC(=O)[C@H](CCN)NC(=O)[C@H]3CCCN3C1=O)C(=O)N[C@@H](Cc1ccc(O)cc1)C(=O)N[C@@H](CCCCNC(=O)CCCCCCCCCCCCCCCO)C(=O)N[C@@H](CCCCN)C(=O)N1CCC[C@@H]1C(=O)N1CCC[C@H]1C(=O)N[C@@H](Cc1ccc(O)cc1)C(=O)N[C@@H](Cc1c[nH]cn1)C(=O)N[C@@H](Cc1ccc(O)cc1)C(=O)N2 [Ex. 21] (cyclo(YHYCSA[dP][Dab]RYCYK(Hexadecanoyl(16-OH))K[dP]P); disulfide 4-11) | 63 | 24 | – | – | 49 | 18.6 | – | – | – | – | – | > 50 | > 50 | –
6 | CCCCCCCCCCOC[C@@H]1NC(=O)[C@H](Cc2ccc(O)cc2)NC(=O)[C@@H]2CSSC[C@H](NC(=O)[C@H]([C@@H](C)O)NC(=O)[C@H](Cc3c[nH]cn3)NC(=O)[C@H](Cc3ccc(O)cc3)NC(=O)[C@@H]3CCCN3C(=O)[C@H]3CCCN3C(=O)[C@H](CCC(N)=O)NC1=O)C(=O)N[C@@H](CCCNC(=N)N)C(=O)NCC(=O)N1CCC[C@@H]1C(=O)N[C@@H](CCN)C(=O)N[C@@H](CCCNC(=N)N)C(=O)N[C@@H](Cc1ccc(O)cc1)C(=O)N2 [Ex. 30] (cyclo(YHTCRG[dP][Dab]RYCYS(X3)Q[dP]P); disulfide 4-11) | – | – | – | – | 54 | – | 24 | 5.5 | – | > 50 | > 50 | – | – | 55.1 ± 19
